Test results reported in patent publication US20050148042A1, “Hybrid phosphoinositide phospholipids: compositions and uses” (priority 2002, published 2005).

Columns and labels:
anti-PIP3 antibody = experiment: Antibody binding to lipids covalently coupled to Maleic-Anhydride activated 96-well plate; conditions: 50 pmol per well, absorbance at 450 nm
Experimental: The ability of lipid recognition proteins to specifically recognize and bind to Pea-PIPns was tested by coupling Pea-PIPns (as well as amino PIPs with the same headgroups as controls) to polystyrene microtiter plates. Briefly, 50 pmol per well of amino PI(4,5)P2 (PIP2), amino PI(3,4,5)P3 (PIP3), Pea-PI(4,5)P2 (Pea-PIP2), and Pea-PI(3,4,5)P3 (Pea-PIP3) lipids in 100 μL PBS were coupled via their primary amine functional groups to triplicate wells of a Maleic-Anhydride activated 96-well plate (Pierce, Rockford, Ill.). Underivatized groups were reacted with 200 μL Tris-Glycine-SDS overnight before blocking with 200 μL 0.02% Ovalbumin in TBS. […] Specific binding was subsequently visualized by incubating with anti-mouse-HRP (horseradish peroxidase) secondary antibody (Sigma, St Louis, Mo.), washing as before, then adding tetramethylbenzadine (TMB) developing reagent (Sigma) and reading the absorbance at 450 nm in a plate reader.
Binding specificity of Pea-PIPs was further tested by coupling Pea-PIP2 and Pea-PIP3 (as well as amino PIPs with the same headgroups as controls) to polystyrene microtiter plates. […] Specific binding was subsequently visualized by incubating with anti-mouse-HRP secondary antibody (Sigma, St Louis, Mo.), washing as before, then adding Tetramethylbenzadine (TMB) developing reagent (Sigma) and reading the absorbance at 450 nm in a plate reader.

GST-PLC δ1-PH = molecular target: T1, GST-PLC δ1-PH (Homo sapiens, UniProt P51178); experiment: Protein-overlay binding to lipids spotted onto nitrocellulose; conditions: 200 pmol to 6 pmol spotted onto nitrocellulose
T1 construct: made in house; host or cells: E. coli
T1 sequence (P51178 21-130 limits assumed): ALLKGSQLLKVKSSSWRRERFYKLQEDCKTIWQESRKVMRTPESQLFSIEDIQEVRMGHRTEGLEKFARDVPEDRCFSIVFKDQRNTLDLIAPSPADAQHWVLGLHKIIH
From the text: In this Example, immobilized Pea-PIPns are readily and specifically recognized by lipid recognition proteins. According to this Example, six different quantities (from 200 pmol to 6 pmol) of Ptdlns(3,4)P2, Ptdlns(3,5)P2, Ptdlns(4,5)P2, Pea-PI(4,5)P2,Ptdlns(3,4,5)P3; Pea-PI(3,4,5P)3 PI and PE were spotted onto nitrocellulose, and binding of Glutathione S-Transferase (GST)-PLC δ1-PH and GST-General Receptor for Phosphoinositides (Grp1)-PH constructs was examined by a protein-overlay technique (described in Dowler, S., Kular, G., and Alessi, D. R. (2002) Sci STKE 2002, PL6) (recombinant GST tagged PLC δ1-PH and Grp1-PH domain proteins used in this Example were expressed in E. coli then purified using glutathione affinity resin (Amersham Biosciences, Piscataway, N.J.).

GST-PLC δ1-PH domain = molecular target: T2, GST-PLC δ1-PH domain (Homo sapiens, UniProt P51178); experiment: AlphaScreen competitive binding, biotinylated Pea-PI(4,5)P2 as probe lipid
T2 construct: made in house; host or cells: E. coli
T2 sequence (P51178 21-130 limits assumed): T1 sequence (P51178 21-130 limits assumed)
Experimental: In addition, competitive binding assays were conducted in which the GST-PLC δ1-PH protein was pre-incubated for 30 min with 10 nM to 10 fM of unlabeled diC4 Ptdlns(4,5)P2, Ptdlns(3,4,5)P3, or Pea-PI(4,5)P2 prior to addition of the other reagents, using biotinylated Pea-PI(4,5)P2 as the probe lipid.
These competitive binding experiments were similar to the binding experiment described above except that non biotinylated lipids are added to each reaction to compete with biotinylated Pea-PI(4,5)P2 for binding to PLC-δ 1-PH domain. For example, eight concentrations of PI(3,4,5)P3 diC4, PI(4,5)P2 diC4, and Pea-PI(4,5)P2 were added as competitors to separate wells in addition to 0.2 pmol/well PLC-δ-1-PH domain, 0.4 pmol/well of Pea-PI(4,5)P2, streptavidin donor, and anti-GST acceptor beads; and incubated as previously described. […] This 500 times better affinity of Pea-PI(4,5)P2 for PLC d1-PH domain compared to PI(3,4,5)P3 is fundamental to the development of a robust assay where one detects the specific PIPn product of a kinase or phosphatase in the presence of excess PIPn substrate.

[1] = protein pre-incubated 30 min with 10 nM to 10 fM competitor

selectivity for displacement of GST-PLC δ1-PH, relative to di-C4 Ptdlns(3,4,5)P3 (GST-PLC δ1-PH domain; [1])	SMILES	recognition by anti-PIP3 antibody (anti-PIP3 antibody)	recognition by GST-PLC δ1-PH (GST-PLC δ1-PH)	IC50 (GST-PLC δ1-PH domain; 0.2 pmol/well PLC-δ-1-PH domain, 0.4 pmol/well probe lipid, read-out: IC50 value as competitor) [nM]	binding to the PH domain as unlabeled competitor (GST-PLC δ1-PH domain; [1])	better affinity for PLC d1-PH domain compared to PI(3,4,5)P3 (GST-PLC δ1-PH domain; ratio of IC50 values) [times]
	CCCCCCCCCCCCCCCC(=O)O[C@H](COP(=O)(O)OCCN)[C@@H](COP(=O)(O)O[C@@H]1[C@H](O)[C@H](O)[C@@H](OP(=O)(O)O)[C@H](OP(=O)(O)O)[C@H]1O)OC(=O)CCCCCCCCCCCCCCC [Pea-PI(4,5)P2, 1-[(2R,3R)-4-(2-Aminoethoxyphosphoryloxy)-2,3-di-O-palmitoylbutoxyphosphoryloxy]-4,5-myo-bisphosphate]	(but not Pea-PIP2) was recognized by the specific antibody	able to bind the correct protein at lower concentrations than the corresponding diC16 phosphoinositides	140	further increase in binding	500
Over 100 fold	CCCC(=O)OCC(COP(=O)(O)OC1C(O)C(O)C(OP(=O)(O)O)C(OP(=O)(O)O)C1O)OC(=O)CCC (stereo not drawn) [di-C4 Ptdlns(4,5)P2, reference compound]					
